Laboratory results from patent publication US5378696A, “Rapamycin esters” (American Home Products Corporation, priority 1993, dated 1995).
Entries after “also recorded” stand apart in the source; their conditions may differ.

Experiments:
[1] = tested on: mixed lymphocyte reaction, popliteal lymph node; assay: popliteal lymph node (PLN) test procedure, in vivo mixed lymphocyte reaction; parameters: species or system mouse (BALB/c donors, C3H recipients); details: p.o. daily Day 0 to Day 4, carboxymethyl cellulose vehicle; rapamycin 1.0
Experimental: (§1) Immunosuppressive activity was evaluated in an in vitro standard pharmacological test procedure to measure lymphocyte proliferation (LAF) and in two in vivo standard pharmacological test procedures. The first in vivo procedure was a popliteal lymph node (PLN) test procedure which measured the effect of compounds of this invention on a mixed lymphocyte reaction and the second in vivo procedure evaluated the survival time of a pinch skin graft.
A mixed lymphocyte reaction (MLR) occurs when lymphoid cells from genetically distinct animals are combined in tissue culture. Each stimulates the other to undergo blast transformation which results in increased DNA synthesis that can be quantified by the incorporation of tritiated thymidine. Since stimulating a MLR is a function of disparity at Major Histocompatibility antigens, an in vivo popliteal lymph node (PLN) test procedure closely correlates to host vs. graft disease. Briefly, irradiated spleen cells from BALB/c donors are injected into the right hind foot pad of recipient C3H mice. The drug is given daily, p.o. from Day 0 to Day 4. On Day 3 and Day 4, tritiated thymidine is given i.p., b.i.d. On Day 5, the hind popliteal lymph nodes are removed and dissolved, and radioactivity counted. […] Percent suppression is calculated using the non-drug treated animals as allogenic control.

Candida albicans = details: in vitro and in vivo; cited from earlier work
transplant rejection = details: cited from earlier work
[2] = in vivo; cited from earlier work
[3] = tested on: lymphocyte proliferation, cells from the thymus of normal BALB/c mice (PHA and IL-1); assay: comitogen-induced thymocyte proliferation procedure (LAF); type: cell-based
Experimental: as §1
Briefly, cells from the thymus of normal BALB/c mice are cultured for 72 hours with PHA and IL-1 and pulsed with tritiated thymidine during the last six hours. […] Cells are harvested and incorporated; radioactivity is determined. inhibition of lymphoproliferation is assessed in percent change in counts per minute from non-drug treated controls. The results are expressed by the following ratio: [formula]

pinch skin graft = assay: survival time of pinch skin graft; type: in vivo, mouse (male DBA/2 donors, male BALB/c recipients); details: intraperitoneally; mean graft survival time ± S.D.
Experimental: as §1
The second in vivo test procedure is designed to determine the survival time of pinch skin graft from male DBA/2 donors transplanted to male BALB/c recipients. The method is adapted from Billingham R. E. and Medawar P. B., J. Exp. Biol. 28:385-402, (1951). Briefly, a pinch skin graft from the donor is grafted on the dorsum of the recipient as a homograft, and an autograft is used as control in the same region. […] Untreated recipients serve as rejection control. The graft is monitored daily and observations are recorded until the graft becomes dry and forms a blackened scab. This is considered as the rejection day. The mean graft survival time (number of days±S.D.) of the drug treatment group is compared with the control group.

[4] = tested on: 5 strains of Candida albicans; assay: antifungal plate test procedure, 5 strains (overall); type: cell-based; details: not evaluated; considered because of structural similarity
Experimental: The following represents the typical procedure used. Compound to be tested was placed on sterile dried 1/4" plate disks, and allowed to dry. Agar plates were seeded with fungi and allowed to solidify. The impregnated disks were placed on the seeded Agar surface and incubated for the time required for the particular culture. Results are expressed in MIC (μg/ml) to inhibit growth.

SMILES	PLN (ratio) [1]	antifungal activity (Candida albicans)	immunosuppressive effect (transplant rejection)	usefulness in preventing or treating disease [2]	LAF (ratio) ([3]; ratio, thymocytes 72 hours with PHA and IL-1, rapamycin 1.0)	Skin Graft (days + SD), mean graft survival time (pinch skin graft)	antifungal activity [4]	inhibition at 0.1 µM ([3]; Mus musculus, Lymphocyte, percent inhibition at 100 nM)
CO[C@H]1C[C@@H]2CC[C@@H](C)[C@@](O)(O2)C(=O)C(=O)N2CCCC[C@H]2C(=O)O[C@H]([C@H](C)C[C@@H]2CC[C@@H](O)[C@H](OC)C2)CC(=O)[C@H](C)/C=C(\C)[C@@H](O)[C@@H](OC)C(=O)[C@H](C)C[C@H](C)/C=C/C=C/C=C/1C [Rapamycin]	1.0	found to have antifungal activity, particularly against Candida albicans, both in vitro and in vivo	immunosuppressive effects	systemic lupus erythematosus; also recorded: pulmonary inflammation; also recorded: insulin dependent diabetes mellitus; also recorded: smooth muscle cell proliferation and intimal thickening following vascular injury; also recorded: ocular inflammation				
CO[C@H]1C[C@@H]2CC[C@@H](C)[C@@](O)(O2)C(=O)C(=O)N2CCCC[C@H]2C(=O)O[C@H]([C@H](C)C[C@@H]2CC[C@@H](OC(=O)CCC(=O)OCc3ccc(C(F)(F)F)cc3)[C@H](OC)C2)CC(=O)[C@H](C)/C=C(\C)[C@@H](O)[C@@H](OC)C(=O)[C@H](C)C[C@H](C)/C=C/C=C/C=C/1C [Example 13, Rapamycin-42-(4-trifluoromethylbenzyl)succinate]					2.11	10.6 ± 0.9 days	considered to have antifungal activity	
COC(=O)CCC(=O)O[C@@H]1CC[C@@H](C[C@@H](C)[C@@H]2CC(=O)[C@H](C)/C=C(\C)[C@@H](O)[C@@H](OC)C(=O)[C@H](C)C[C@H](C)/C=C/C=C/C=C(\C)[C@@H](OC)C[C@@H]3CC[C@@H](C)[C@@](O)(O3)C(=O)C(=O)N3CCCC[C@H]3C(=O)O2)C[C@H]1OC [Example 12, Rapamycin-42-monomethylsuccinate]						10.8 ± 0.4 days	considered to have antifungal activity	97%
